The text below walks through data of patent US20050026959A1, “Ethanol solvate of (-)-cis-2-(2-chloropheny)-5,7-dihydroxy-8-[4R-(3S-hydroxy-1-methyl)piperidinyl]-4H-1benzopyran-4-one” (Aventis Pharma Deutschland GmbH, priority 2000, published 2005).

Molecules are shown by their SMILES.

Data set [1] can be described thus: Hygroscopicity of the solid form. Format: physicochemical. From the text:
Form II is hygroscopic. It can be used in water free form or in a form with a certain water content. The use in a form, which is essentially free from water is preferred.

Data set [2] relates to cyclin dependent kinases (CDKs) including CDK1, CDK2, CDK4, CDK6 and CDK7. The following applies: cdk1/cyclin B; cdk2/cyclin A; cdk2/cyclin E; cdk4/cyclinD; cdk6/cyclin D; cdk7/cyclin H; Int. J. Oncology 9: 1143-1168 (1996); cited from earlier work.

Consider `CN1CC[C@H](c2c(O)cc(O)c3c(=O)cc(-c4ccccc4Cl)oc23)[C@H](O)C1.Cl` (relative stereo) [Form II, (−)-cis-2-(2-chlorophenyl)-5,7-dihydroxy-8-[4R-(3S-hydroxy-1-methyl)piperidinyl]-4H-1-benzopyran-4-one hydrochloride], for which the hygroscopicity result in data set [1] was “hygroscopic”.

For `CN1CC[C@H](c2c(O)cc(O)c3c(=O)cc(-c4ccccc4Cl)oc23)[C@H](O)C1` [Flavopiridol, (−)-cis-2-(2-chlorophenyl)-5,7-dihydroxy-8-[4R-(3S-hydroxyl-1-methyl)piperidinyl]-4H-1-benzopyran-4-one], the “inhibition of cyclin dependent kinases” value in data set [2] is “strong inhibitor”.
